Experimental data reported in publication PMC6478789, “A chemical toolbox for the study of bromodomains and epigenetic signaling” (Nature Communications, 2019).

Columns and labels:
SND1 = molecular target: T1, SND1 (Homo sapiens, UniProt Q7KZF4); assay: Temperature shift assay (non-BRD reader domains); assay type: binding; settings: 10µM compound
T1 sequence (Q7KZF4 729-787 limits assumed): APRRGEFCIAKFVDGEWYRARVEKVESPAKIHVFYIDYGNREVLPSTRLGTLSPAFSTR
Protocol: (§1) Temperature shift assays have been described by Fedorov et al.[46]. Recombinant protein domains (bromodomain or kinases) at a concentration of 2 μM in 10 mM HEPES, pH 7.5, and 500 mM NaCl were mixed with 10 μM of chemical probes. Temperature-dependent protein unfolding profiles were measured using a Real-Time PCR Mx3005p machine (Stratagene).
(§2) Wu et al., Supplementary figures and tables 14
(§3) Supplementary Table 3: Selectivity screening data (non-BRD reader domains):
(§4) Temperature shift assay data of BRD probes screened against a diver se panel of methyl-lysine
(§5) reader domains. Compounds were screened a concentration of 10 µM. Shown are temperature

EED = EED (Homo sapiens, UniProt O75530); assay: Temperature shift assay (non-BRD reader domains); assay type: binding; settings: 10µM compound
Chain of EED (O75530 whole entry, species assumed, the tested form may be a part): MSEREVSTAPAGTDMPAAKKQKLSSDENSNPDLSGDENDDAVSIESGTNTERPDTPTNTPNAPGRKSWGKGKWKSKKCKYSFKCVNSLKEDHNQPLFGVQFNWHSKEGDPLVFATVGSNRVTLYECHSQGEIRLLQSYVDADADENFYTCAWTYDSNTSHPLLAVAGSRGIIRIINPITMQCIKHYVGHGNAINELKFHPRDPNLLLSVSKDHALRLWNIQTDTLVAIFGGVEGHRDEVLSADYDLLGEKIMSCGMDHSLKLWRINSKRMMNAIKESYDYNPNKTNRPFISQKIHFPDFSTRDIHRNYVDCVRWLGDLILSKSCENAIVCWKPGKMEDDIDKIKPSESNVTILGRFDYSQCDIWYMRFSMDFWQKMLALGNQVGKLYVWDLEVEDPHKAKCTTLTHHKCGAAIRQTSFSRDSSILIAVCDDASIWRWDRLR
Protocol: as §1, §2, §3, §4, §5

BRPF3 = BRPF3 (Homo sapiens, UniProt Q9ULD4); assay: Temperature shift assay (non-BRD reader domains); assay type: binding; settings: 10µM compound
Chain of BRPF3 (Q9ULD4 1076-1159 limits assumed, species assumed): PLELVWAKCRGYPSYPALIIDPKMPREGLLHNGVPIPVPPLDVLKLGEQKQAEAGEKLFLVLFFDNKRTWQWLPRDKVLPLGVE
Protocol: as §1, §2, §3, §4, §5

53BP1 = 53BP1 (Homo sapiens, UniProt Q12888); assay: Temperature shift assay (non-BRD reader domains); assay type: binding; settings: 10µM compound
Chain of 53BP1 (Q12888 1484-1603 limits assumed, species assumed): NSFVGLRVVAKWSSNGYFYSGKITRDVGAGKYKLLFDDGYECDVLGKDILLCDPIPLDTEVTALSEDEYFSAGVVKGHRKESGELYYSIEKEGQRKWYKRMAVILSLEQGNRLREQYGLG
Protocol: as §1, §2, §3, §4, §5

FXR1 = FXR1 (Homo sapiens, UniProt P51114); assay: Temperature shift assay (non-BRD reader domains); assay type: binding; settings: 10µM compound
Chain of FXR1 (P51114 2-132 limits assumed, species assumed): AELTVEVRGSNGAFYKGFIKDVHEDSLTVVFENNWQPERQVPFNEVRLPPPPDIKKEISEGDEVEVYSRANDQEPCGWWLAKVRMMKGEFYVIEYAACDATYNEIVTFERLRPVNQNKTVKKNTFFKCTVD
Protocol: as §1, §2, §3, §4, §5

TDRD3 = TDRD3 (Homo sapiens, UniProt Q9H7E2); assay: Temperature shift assay (non-BRD reader domains); assay type: binding; settings: 10µM compound
Chain of TDRD3 (Q9H7E2 555-615 limits assumed, species assumed): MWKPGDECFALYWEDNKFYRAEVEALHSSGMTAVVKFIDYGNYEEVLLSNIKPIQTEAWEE
Protocol: as §1, §2, §3, §4, §5

WDR5 = WDR5 (Homo sapiens, UniProt P61964); assay: Temperature shift assay (non-BRD reader domains); assay type: binding; settings: 10µM compound
Protocol: as §1, §2, §3, §4, §5

RBBP1 = assay: Temperature shift assay (non-BRD reader domains); assay type: binding; settings: 10µM compound
Protocol: as §1, §2, §3, §4, §5

UHRF1 = molecular target: T2, UHRF1 (Homo sapiens, UniProt Q96T88); assay: Temperature shift assay (non-BRD reader domains); assay type: binding; settings: 10µM compound
T2 sequence (Q96T88 126-285 limits assumed): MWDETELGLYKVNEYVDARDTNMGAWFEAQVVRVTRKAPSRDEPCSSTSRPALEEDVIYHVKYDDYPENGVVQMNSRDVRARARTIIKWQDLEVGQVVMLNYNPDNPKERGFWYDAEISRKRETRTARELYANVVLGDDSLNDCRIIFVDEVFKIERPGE
Protocol: as §1, §2, §3, §4, §5

BRPF1 = BRPF1 (Homo sapiens, UniProt P55201); assay: Temperature shift assay (non-BRD reader domains); assay type: binding; settings: 10µM compound
Chain of BRPF1 (P55201 1085-1168 limits assumed, species assumed): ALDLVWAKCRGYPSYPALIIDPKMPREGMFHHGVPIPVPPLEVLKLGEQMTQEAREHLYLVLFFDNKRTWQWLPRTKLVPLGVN

WDR9(2) = WDR9(2) (Homo sapiens, UniProt Q9NSI6); assay: BROMOscan ligand-binding assay; settings: KD, WDR9(2)
Chain of WDR9(2) (Q9NSI6 1313-1418 limits assumed): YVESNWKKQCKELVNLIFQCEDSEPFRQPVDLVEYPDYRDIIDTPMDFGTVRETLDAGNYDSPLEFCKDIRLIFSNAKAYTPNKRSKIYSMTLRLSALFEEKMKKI
Excerpt: (§6) BROMOscan is a binding assay based on the well-known KINOMEscan technology. This assay measures the binding of a DNA-tagged bromodomain to an immobilized BRD ligand. If an inhibitor is present, it will compete with the bromodomain binding to the immobilized ligand, resulting in reduction of a quantitative PCR (qPCR) signal in a dose-dependent manner.

ATAD2A = molecular target: T3, ATAD2A (Homo sapiens, UniProt Q6PL18); assay: BROMOscan ligand-binding assay
T3 sequence (Q6PL18 980-1092 limits assumed): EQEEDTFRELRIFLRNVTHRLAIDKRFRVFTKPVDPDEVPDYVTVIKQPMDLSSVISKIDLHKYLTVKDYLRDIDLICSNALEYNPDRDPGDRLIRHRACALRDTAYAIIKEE
Excerpt: as §6

CECR2 = CECR2 (Homo sapiens, UniProt Q9BXF3); assay: BROMOscan ligand-binding assay; settings: KD, CECR2
Chain of CECR2 (Q9BXF3 434-538 limits assumed): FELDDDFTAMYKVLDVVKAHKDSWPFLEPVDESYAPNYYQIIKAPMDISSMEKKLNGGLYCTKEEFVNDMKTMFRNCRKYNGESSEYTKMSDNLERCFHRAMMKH
Excerpt: as §6

GCN5L2 = molecular target: T4, GCN5L2 (Homo sapiens, UniProt Q92830); assay: BROMOscan ligand-binding assay
T4 sequence (Q92830 728-832 limits assumed): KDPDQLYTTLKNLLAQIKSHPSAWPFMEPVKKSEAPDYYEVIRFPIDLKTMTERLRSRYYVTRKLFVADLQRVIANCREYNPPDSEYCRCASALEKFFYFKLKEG
Excerpt: as §6

PBRM1(5) = PBRM1(5) (Homo sapiens, UniProt Q86U86); assay: BROMOscan ligand-binding assay
Chain of PBRM1(5) (Q86U86 653-763 limits assumed): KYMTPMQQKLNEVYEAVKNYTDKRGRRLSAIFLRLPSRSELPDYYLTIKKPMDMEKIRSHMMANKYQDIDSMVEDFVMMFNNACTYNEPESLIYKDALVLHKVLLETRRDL
Excerpt: as §6

BRD2(1,2) = BRD2(1,2) (Homo sapiens, UniProt P25440); assay: BROMOscan ligand-binding assay
Chain of BRD2(1,2) (P25440 71-455 limits assumed): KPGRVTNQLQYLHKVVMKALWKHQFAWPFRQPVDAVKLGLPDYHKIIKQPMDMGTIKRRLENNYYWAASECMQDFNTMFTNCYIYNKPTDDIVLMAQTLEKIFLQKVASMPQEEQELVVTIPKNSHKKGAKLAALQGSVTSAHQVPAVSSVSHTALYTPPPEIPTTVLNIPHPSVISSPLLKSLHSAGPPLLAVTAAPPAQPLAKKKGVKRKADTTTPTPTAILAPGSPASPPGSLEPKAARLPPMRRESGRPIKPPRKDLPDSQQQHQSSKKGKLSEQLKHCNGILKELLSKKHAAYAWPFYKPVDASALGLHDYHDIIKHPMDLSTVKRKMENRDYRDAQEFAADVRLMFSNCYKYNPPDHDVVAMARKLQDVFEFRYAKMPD
Excerpt: as §6

TRIM24 = molecular target: T5, TRIM24 (Homo sapiens, UniProt O15164); assay: BROMOscan ligand-binding assay; settings: KD, TRIM24(Bromo.)
T5 sequence (O15164 899-1004 limits assumed): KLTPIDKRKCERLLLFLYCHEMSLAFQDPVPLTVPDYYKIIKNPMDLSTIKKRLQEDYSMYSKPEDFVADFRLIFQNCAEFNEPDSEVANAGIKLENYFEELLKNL
Excerpt: as §6

BRD3(1) = BRD3(1) (Homo sapiens, UniProt Q15059); assay: BROMOscan ligand-binding assay; settings: KD, BROMOscan Gene Symbol BRD3(1)
Chain of BRD3(1) (Q15059 34-140 limits assumed): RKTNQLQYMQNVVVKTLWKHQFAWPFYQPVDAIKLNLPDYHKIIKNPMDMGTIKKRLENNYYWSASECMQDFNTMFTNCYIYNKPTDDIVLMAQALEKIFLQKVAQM
Excerpt: as §6

BRD1 = molecular target: T6, BRD1 (Homo sapiens, UniProt O95696); assay: BROMOscan ligand-binding assay
T6 sequence (O95696 562-666 limits assumed): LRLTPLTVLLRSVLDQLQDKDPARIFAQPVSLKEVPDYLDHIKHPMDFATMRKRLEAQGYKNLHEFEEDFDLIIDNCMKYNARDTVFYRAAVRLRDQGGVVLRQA
Excerpt: as §6

BRD4(fl) = BRD4(fl) (Homo sapiens, UniProt O60885); assay: BROMOscan ligand-binding assay
Excerpt: as §6

BRD9 = molecular target: T7, BRD9 (Homo sapiens, UniProt Q9H8M2); assay: BROMOscan ligand-binding assay; settings: KD, BROMOscan Gene Symbol BRD9
T7 sequence (Q9H8M2 136-240 limits assumed): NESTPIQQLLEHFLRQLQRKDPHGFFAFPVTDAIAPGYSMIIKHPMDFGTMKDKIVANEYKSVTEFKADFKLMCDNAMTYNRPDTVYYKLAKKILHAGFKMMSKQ
Excerpt: as §6

EP300 = molecular target: T8, EP300 (Homo sapiens, UniProt Q09472); assay: BROMOscan ligand-binding assay; settings: KD, EP300
T8 sequence (Q09472 1049-1156 limits assumed): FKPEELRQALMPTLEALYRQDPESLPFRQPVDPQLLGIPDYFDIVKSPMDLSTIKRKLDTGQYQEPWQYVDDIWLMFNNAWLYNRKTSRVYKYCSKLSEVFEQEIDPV
Excerpt: as §6

FALZ = FALZ (Homo sapiens, UniProt Q12830); assay: BROMOscan ligand-binding assay; settings: KD, FALZ
Excerpt: as §6

BRD3(2) = BRD3(2) (Homo sapiens, UniProt Q15059); assay: BROMOscan ligand-binding assay; settings: KD, BROMOscan Gene Symbol BRD3(2)
Chain of BRD3(2) (Q15059 306-415 limits assumed): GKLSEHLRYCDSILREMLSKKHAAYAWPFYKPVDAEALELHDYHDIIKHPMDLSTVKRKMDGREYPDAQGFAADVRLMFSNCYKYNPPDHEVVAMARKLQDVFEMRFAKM
Excerpt: as §6

[1] = KD (BROMOscan), sheet prints no unit (nM)

Tm (C) 10µM, temperature shift (SND1) [Kelvin] | Tm (C) 10µM, temperature shift (EED) [Kelvin] | Tm (C) 10µM, temperature shift (BRPF3) [Kelvin] | Tm (C) 10µM, temperature shift (53BP1) [Kelvin] | Tm (C) 10µM, temperature shift (FXR1) [Kelvin] | Tm (C) 10µM, temperature shift (TDRD3) [Kelvin] | Tm (C) 10µM, temperature shift (WDR5) [Kelvin] | Tm (C) 10µM, temperature shift (UHRF1) [Kelvin] | Tm (C) 10µM, temperature shift (BRPF1) [Kelvin] | Compound | Tm (C) 10µM, temperature shift (RBBP1) [Kelvin] | also measured
-0.9 | -0.7 | -0.3 | 0.0 | 0.8 | -1.0 | 0.4 | -0.2 | -0.3 | Cc1c(NC(=O)c2cc(C(N)=O)nc3cc(F)ccc23)c(C(F)(F)F)nn1Cc1ccc(C#N)cc1 [BAY-876] | -0.3 | 
-0.5 | -0.3 | 0.2 | 0.4 | 0.4 | -0.7 | 0.2 | 0.0 | -0.3 | CN(C)CCCOc1ccc(-c2cc(NCCCn3cccn3)nc(S(C)(=O)=O)n2)cc1 [TP-238] | -0.4 | 
-0.5 | -0.4 | -0.2 | -0.1 | 0.4 | -0.6 | 0.2 | -0.2 | -0.2 | CO[C@H]1CNC[C@@H](OCC2CCC(F)(F)CC2)[C@@H]1Nc1ncc(-c2cncc(C)c2)c2cc(C)c(=O)[nH]c12 [GSK8814] | -0.1 | 
-1.6 |  | -0.4 | -0.7 | -1.7 | -1.8 | 0.2 | -0.3 | -2.2 | COc1cc(Cl)c(C(=O)N[C@@H](CN[C@H]2CC[C@@H](N)CC2)Cc2ccc(C#N)cc2)cc1-c1ccc(CN[C@H](C)c2ccc(C)cc2)o1 [BAY-850] | -1.0 | 
-1.0 | -0.3 | 1.0 |  | 0.3 | -0.9 | 0.5 |  | -2.7 | Cc1nnc2c3ccccc3c(N[C@@H](C)[C@H](c3ccccc3)N(C)C)nn12 [L-Moses] | -0.4 | 
-0.7 | -0.5 | 0.0 | 0.3 | 0.9 | -0.6 | -0.2 | 0.0 | -0.2 | CCC(=O)N1CCOc2c(cc(-c3ccc(OC)c(OC)c3)cc2OCC2CCCN(C)C2)C1 (stereo not drawn) [I-CBP112] | -0.1 | Kd (WDR9(2)): 59 µM; Kd (ATAD2A; [1]): > 30000 nM; Kd (ATAD2A; KD, BROMOscan Gene Symbol ATAD2A): > 100000 nM; Kd (CECR2): 17 µM; Kd (GCN5L2; [1]): > 30000 nM; Kd (GCN5L2; KD, GCN5L2): > 100000 nM; Kd (PBRM1(5); [1]): > 30000 nM; Kd (PBRM1(5); KD, PBRM1(5)): > 100000 nM; Kd (BRD2(1,2)): 6.9 µM; Kd (TRIM24): 12 µM; Kd (BRD3(1)): 5.4 µM; Kd (BRD1): 51 µM; Kd (BRD4(fl)): 2.85 µM; Kd (BRD9): 25 µM; Kd (EP300): 0.12 µM; Kd (FALZ): 5.5 µM; Kd (BRD3(2)): 20 µM
-1.0 | -0.5 |  | -2.3 | -1.2 | -5.3 | -7.3 | -0.4 | -0.2 | Cc1c(NC(=O)c2cc(C(N)=O)nc3cc(F)ccc23)c(C(F)(F)F)nn1Cc1ccc(C(C)(C)C)cc1 [BAY-588] | -0.1 | 
-1.0 | -0.7 | -0.3 | -0.1 | 0.3 | -0.6 | 0.2 | -0.2 | -0.8 | CN1C[C@H](Nc2cnn(C)c(=O)c2Br)C[C@H](c2ccccc2)C1 [GSK4027] | -0.7 | 
